Experiments:
[1] = 298.15 K; 101.33 kPa; Liquid; Vibrating tube method
[2] = excess molar enthalpy (molar enthalpy of mixing); xn = mol fraction of the nth substance listed; details: 101 kPa, Liquid, Flow calorimetry

C=CC(C)(O)CCC=C(C)C (stereo not drawn) [3,7-dimethyl-1,6-octadien-3-ol]
Details	mass density [kg/m3]
[1]	857

C=CC(C)(O)CCC=C(C)C (stereo not drawn) [3,7-dimethyl-1,6-octadien-3-ol] + CC(C)O
excess molar enthalpy [kcal/mol], [2]
Details	283.15 K	298.15 K	313.15 K	328.15 K
x1 = 0.024	-0.00789	-0.00741	-0.00574	-0.00191
x1 = 0.048	-0.011	-0.0117	-0.00908	-0.00239
x1 = 0.097	-0.0141	-0.0148	-0.0115	-0.000717
x1 = 0.195	-0.0174	-0.0174	-0.0108	0.00621
x1 = 0.292	-0.0186	-0.0172	-0.00837	0.0131
x1 = 0.392	-0.0196	-0.0163	-0.0055	0.0184
x1 = 0.49	-0.0196	-0.0134	-0.00167	0.0215
x1 = 0.592	-0.0174	-0.00884	0.00191	0.022
x1 = 0.693	-0.012	-0.00287	0.00478	0.0184
x1 = 0.796	-0.00454	0.00143	0.00454	0.0131
x1 = 0.894	0.000717	0.00215	0.00167	0.00574
x1 = 0.948	0.000478	0.000717	0.000717	0.00263

C=CC(C)(O)CCC=C(C)C (stereo not drawn) [3,7-dimethyl-1,6-octadien-3-ol] + CCCCO
excess molar enthalpy [kcal/mol], [2]
Details	283.15 K	298.15 K	313.15 K	328.15 K
x1 = 0.042	-0.00311	-0.00717	-0.00717	-0.00526
x1 = 0.085	-0.00502	-0.0143	-0.0158	-0.022
x1 = 0.174	-0.00526	-0.0227	-0.0349	-0.0526
x1 = 0.265	-0.00287	-0.0241	-0.0466	-0.0724
x1 = 0.359	-0.000239	-0.0217	-0.0514	-0.082
x1 = 0.457	0.00215	-0.0182	-0.0509	-0.0837
x1 = 0.559	0.00574	-0.0136	-0.0447	-0.0779
x1 = 0.661	0.00956	-0.00669	-0.0351	-0.0624
x1 = 0.771	0.0136	0.000717	-0.022	-0.044
x1 = 0.884	0.0141	0.00621	-0.00741	-0.021
x1 = 0.943	0.0105	0.00526	-0.00191	-0.00884

Source: the NIST ThermoML archive (doi:10.1021/je200457q)
